In one assay the test system is pineal gland. Put plainly: In vivo pineal microdialysis with drug infusion through the dialysis membrane; on-line HPLC of melatonin and serotonin (5-HT) secretion. On the set-up: species or system rat. The procedure: Adult Sprague Dawley male rats (220-225 g) were house at 20-25° C. with lights on at 11 am (LD 14:10). Food and were available ad libitum throughout the experiment. Illumination was supplied by white fluorescent lamps (600 lux at cage level). Rats were placed in the LD cycles for at least 2 weeks before the start of surgery.
The animals were deeply anesthetized with a combination of Ketamine (10 mg/ml, 0.5 ml/100 g weight, i.p.) and Xylazine (2 mg/ml, 0.5 ml/100 g weight, i.p.). The animals' heads were shaved and positioned in a stereotaxic instrument. A longitudinal incision (approximately 2.5 cm) is made along the midline in the skin from anterior (level of the eyes) to posterior (base of the skull). The sagittal and lambdoid sutures were then exposed by scraping away the periosteum to the temporal muscles. […] The dura was exposed after grinding away the top bone, which was removed using iris forceps after making a cross cut with a scalpel blade (FIG. 1B). […] Bleeding was controlled with cotton wool pledget, or flushed with water and suctioned. Three stainless steel screws were placed nearby in the parietal and frontal bones to serve as anchors. After the animal's head was repositioned 30 degrees downward, the dura matter below the confluence of sinuses was then lifted 5 mm with a hook fixed to the stereotaxic frame (FIG. 1C). The dorsal cerebellum was then pressed downward with a glass blunt tube to expose the pineal gland. The tentorium cerebelli which covers the posterior surface of the pineal and connects to the confluence of the sinuses, was then carefully reflected to visualize the pineal with a micro sharp hook, while the bleeding around the pineal was flushed and suctioned. The pineal vein is visible in the midline of the pineal posterior surface (FIG. 1D) which divides the pineal gland into two parts and drains it to the confluence of the sinuses. The tip of the guide cannula (CMA Microdialysis, N. Chelmsford, Mass.) was then positioned adjacent to either side of the exposed pineal before the skull was closed with dental cement. The rats were allowed to recover for 24 hours before experimentation.
(§1) Pineal microdialysis was carried out as follows. Immediately before sampling, the rat was anesthetized with halothane briefly, the stylet (or dummy probe) was replaced with a microdialysis proble (CMA12, 20 KD cut off, membrane length 4 mm)(CMA Microdialysis, N. Chelmsford, Mass.) and fixed with plastic glue. The dialysis probe was continuously infused via the microbore PEEK tubing (0.65 mm OD, 0.12 mm ID) at a flow rate of 2 ul/min with artificial CSF (Harvard, Holliston, Mass.). Samples were collected at 10 minutes intervals via the PEEK tube into a 20 ul loop of Pollen 8 automatic injector (BAS, West Lafayette, Ind.), which was on-line with the HPLC system. The sample loop was set to be retained in the load position during the 10 minute cycles and was automatically switched to the injection positions briefly, after which the cycle was repeated. The rats were linked to the apparatus for dialysis through a quartz dual channel swivel (Harvard/Instech, Boston, Mass.) to prevent the tubing from entanglement. […]
The analytical condition for the simultaneous detection of 5-HT/NAS/melatonin was based on Drijffiout et al. (J. Neurochem. 61: 936-942 (1993)) with minor modifications. A Shimadzu pump (Shimadzu, Columbia, USA) was used in conjunction with a Shimadzu fluorescence detector (FD, excitation: 280 nm, emission: 345 nm). […]

The test system of another assay is NAT. Put plainly: Pineal in situ hybridization for NAT RNA after drug infusion by microdialysis. The assay is classed as in vivo, rat. On the procedure:
as §1, with “entanglement. All pharmacological agents with molecular weights less than […] were delivered to the pineal through the microdialysis tubing. All drugs were infused after dissolving in artificial CSF solution at final concentrations indicated and for the duration described in the figure legends.” for “entanglement.”

Where [1] appears, read: ISO 1 uM infused into pineal for 2.5 hours during the day (14:30 to 17:00), days 7-10 of microdialysis, single rat.
The mark [2] stands for this setting: dibutyryl cAMP 10 mM infused through the microdialysis tube during the day.

As to `CC(C)NCC(O)c1ccc(O)c(O)c1` (stereo not shown) [ISO, Isoprenaline], in the assay with pineal gland (setting [1]), the “effect on serotonin (5-HT) output as melatonin output increases” value is on record as “decreases in a perfectly inverse manner”, the “time after ISO treatment at which melatonin reaches a maximum” value is 2 h, the “time after ISO withdrawal within which melatonin decreases” value is no more than 1 h and the “time after infusion at which melatonin levels begin to increase” value was found to be 1 h. Moreover, the “NAT RNA expression in pineal sections (in situ hybridization)” value in the assay on NAT (ISO 1 uM infused through dialysis membrane during the day, 12th day of microdialysis, n=5 rats) is on record as “restricted to the region surrounding the probe membrane”.

As for `CCCC(=O)Nc1ncnc2c1ncn2[C@@H]1O[C@@H]2COP(=O)(O)O[C@H]2[C@H]1OC(=O)CCC` [dibutyryl-cAMP], in the assay on pineal gland (setting [2]), the melatonin production entry was “activated”. In addition, the “NAT gene induction in pineal sections (in situ hybridization)” value in the assay with NAT (setting [2]) was “NAT gene induction is detected”.

Values taken from patent publication US20050059977A1, “Monitoring circadian activity” (priority 2003, published 2005).
